This is an account of results in article PMC2730762 (Biochemistry, 2009).

Where a SMILES comes first, the peptide text is derived from it. [ ]: non-standard residue; d: D form. The star is where a group is joined. Sta = CC(C)C[C@H](N)[C@@H](O)CC(=O)O; Isovaleryl = CC(C)CC(=O)*

In one experiment the target is PfPM1 (Plasmodium falciparum, UniProt Q7KQM4). In words: biochemical.
The target of experiment [1] is naturally-occurring PfPM1. The conditions noted are these: cited from earlier work.
The test system of experiment [2] is cultured P. falciparum parasites. The following applies: cited from earlier work.

Chain of PfPM1 (Q7KQM4 124-452): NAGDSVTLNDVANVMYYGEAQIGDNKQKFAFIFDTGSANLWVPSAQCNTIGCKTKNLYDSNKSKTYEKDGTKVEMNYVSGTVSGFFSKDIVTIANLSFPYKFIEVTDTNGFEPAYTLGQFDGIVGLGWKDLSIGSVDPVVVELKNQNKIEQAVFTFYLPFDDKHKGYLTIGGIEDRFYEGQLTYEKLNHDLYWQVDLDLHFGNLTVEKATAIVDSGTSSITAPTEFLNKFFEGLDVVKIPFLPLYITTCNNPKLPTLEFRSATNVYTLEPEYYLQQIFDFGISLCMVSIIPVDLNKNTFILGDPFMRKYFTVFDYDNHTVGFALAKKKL

As a reminder, the Ki is a measure of affinity in units of concentration, obtained from inhibition or displacement. Consider `CC(C)CC(=O)N[C@H](C(=O)N[C@H](C(=O)N[C@@H](CC(C)C)[C@@H](O)CC(=O)N[C@@H](C)C(=O)N[C@@H](CC(C)C)[C@@H](O)CC(=O)O)C(C)C)C(C)C` [pepstatin A] (Isovaleryl-VV[Sta]A[Sta]-OH), for which the Ki at PfPM1 was 1.4 ± 0.2 nM; in experiment [1] it was 0.7 nM. In experiment [2], the “killing of cultured P. falciparum parasites” value is given as “kill cultured P. falciparum parasites”.
